From patent US20060204502A1 (priority 2004, published 2006) come the findings set out here.

Molecules are shown by their SMILES.

One experiment deals with A375 cells. In words: Colony formation assay of A375 cells. The class given is cell-based, human. The note with it: 10 μM combined with paclitaxel (0.75 μg/ml), 7 days. The method, then: FIG. 2 illustrates colony formation assay of A375 cells. Cells were treated with different drugs and colonies were counted after 7 days. The values represent the mean±SEM of four independent experiments. […] Analysis was by ANOVA followed by Dunnett's test.
Control plates received the same volume of DMSO alone. After 7 days of growth at 37° C. in humidified atmosphere containing 5% CO2, the cells were fixed with absolute methanol for 5′ and stained with 1/10 Giemsa/phosphate-buffered saline (PBS) staining solution for 10 minutes. Staining solution was removed and colonies of greater than 30 cells were scored as survivors. For each treatment, six individual wells were scored.

Experiment [1] deals with Human Pancreatic Cancer Panc-1. The experiment in a line: MTT growth inhibitory assay, Panc-1. Type of experiment: cell-based. Conditions: Panc-1 cells, A3 antagonist at 1 μg/ml. How it is done: Interpretation of the EF is dependent upon the concentrations of A3 receptor antagonist tested. For example, when using very low concentrations of A3 receptor antagonist, any EF above 1.0 is synergistic if the A3 receptor antagonist concentration is below the threshold of cell growth inhibition.
The cells are sub-cultured twice a week.
Vinblastine sulfate salt was obtained from Sigma Chemical Co., (V1377). Irinotecan was diluted with culture medium. All other agents were dissolved in 100% DMSO at appropriate concentrations. The DMSO stock solutions were diluted 100-fold with growth medium so that the final DMSO concentration was 1%.

`CCCn1cc2c(nc(NC(=O)Nc3ccc(OC)cc3)n3nc(-c4ccco4)nc23)n1` [MRE3008F20, 5-[[(4-Methoxyphenyl)amino]carbonyl]amino-8-propyl-2-(2-furyl)-pyrazolo[4,3-e]1,2,4-triazolo[1,5-c]pyrimidine]: the “colony formation, % of DMSO control” value with A375 cells was 0.2%. The “Enhancement Factor” value was determined as 1.8 in experiment [1] (enhancement of docetaxel IC50) and 1.9 in experiment [1] (enhancement of paclitaxel IC50).
